Results from ChEMBL document CHEMBL6092212, “Discovery of novel substituted (Z)-N'-hydroxy-3-(3-phenylureido)benzimidamide derivatives as multifunctional molecules targeting pathological hallmarks of Alzheimer's disease” (Eur J Med Chem, 2024).

Tests used:
[1] = target: T1, Acetylcholinesterase (Homo sapiens, UniProt P22303); assay: Inhibition of human AChE using ATCI as substrate preincubated for 30 mins followed by substrate addition measured after 30 mins by Ellman's method
[2] = target: Cholinesterase (Equus caballus, UniProt P81908); assay: Inhibition of equine BChE using BTCI as substrate preincubated for 30 mins followed by substrate addition measured after 30 mins by Ellman's method
Cholinesterase, sequence (P81908 whole entry): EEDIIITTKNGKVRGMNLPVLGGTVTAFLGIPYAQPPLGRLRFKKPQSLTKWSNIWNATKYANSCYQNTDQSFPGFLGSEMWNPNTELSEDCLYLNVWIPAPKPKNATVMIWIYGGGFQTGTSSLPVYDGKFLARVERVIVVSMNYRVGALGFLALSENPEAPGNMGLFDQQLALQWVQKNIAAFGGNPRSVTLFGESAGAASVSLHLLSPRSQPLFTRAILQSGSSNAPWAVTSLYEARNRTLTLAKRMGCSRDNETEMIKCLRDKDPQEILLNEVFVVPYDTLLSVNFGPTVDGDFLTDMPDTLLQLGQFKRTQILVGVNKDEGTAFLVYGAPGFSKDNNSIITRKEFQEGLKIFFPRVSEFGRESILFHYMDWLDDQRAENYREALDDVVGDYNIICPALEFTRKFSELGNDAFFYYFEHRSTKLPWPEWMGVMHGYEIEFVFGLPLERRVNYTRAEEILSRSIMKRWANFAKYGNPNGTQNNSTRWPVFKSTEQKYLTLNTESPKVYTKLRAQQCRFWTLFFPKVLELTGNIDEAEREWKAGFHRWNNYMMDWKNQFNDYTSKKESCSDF

[3] = Antioxidant activity assessed as DPPH radical scavenging activity at 20 to 200 uM incubated for 30 mins by absorbance based analysis relative to control; format: functional; conditions: dose 20-200 µM
[4] = Antioxidant activity assessed as inhibition of DPPH radical scavenging activity incubated for 30 mins by absorbance based analysis; format: functional
[5] = target: T1, Acetylcholinesterase; assay: Inhibition of human AChE using ATCI as substrate preincubated for 30 mins followed by substrate addition measured after 30 mins by Ellman's method relative to control; parameters: concentration or dose not given beside the values; conditions: time 60.0 min
[6] = target: Cholinesterase (Equus caballus) (UniProt P81908); assay: Inhibition of equine BChE using BTCI as substrate preincubated for 30 mins followed by substrate addition measured after 30 mins by Ellman's method relative to control
Cholinesterase (Equus caballus), sequence (P81908 whole entry): as above

T1 sequence (P22303 whole entry): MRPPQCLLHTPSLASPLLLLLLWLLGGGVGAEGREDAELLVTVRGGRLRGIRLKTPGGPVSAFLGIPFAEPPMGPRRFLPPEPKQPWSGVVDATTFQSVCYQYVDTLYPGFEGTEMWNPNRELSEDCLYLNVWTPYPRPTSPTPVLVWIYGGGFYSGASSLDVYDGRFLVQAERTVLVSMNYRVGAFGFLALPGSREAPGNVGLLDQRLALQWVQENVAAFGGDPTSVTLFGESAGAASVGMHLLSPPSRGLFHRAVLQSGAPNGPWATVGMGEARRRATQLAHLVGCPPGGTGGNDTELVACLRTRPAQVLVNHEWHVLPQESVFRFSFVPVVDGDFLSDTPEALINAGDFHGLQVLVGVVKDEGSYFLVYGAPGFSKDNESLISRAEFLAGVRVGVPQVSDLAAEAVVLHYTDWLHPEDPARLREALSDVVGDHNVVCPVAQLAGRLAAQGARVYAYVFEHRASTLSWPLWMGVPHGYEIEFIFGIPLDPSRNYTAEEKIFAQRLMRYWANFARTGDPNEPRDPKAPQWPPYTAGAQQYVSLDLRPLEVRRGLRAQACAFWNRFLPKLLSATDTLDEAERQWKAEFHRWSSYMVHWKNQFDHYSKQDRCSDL

SMILES	IC50 [1]	IC50 [2]	also measured
COc1cccc(NC(=O)Nc2ccc(/C(N)=N/O)cc2)c1	9.15 µM	18.2 µM	–
O=c1c(O)c(-c2ccc(O)c(O)c2)oc2cc(O)cc(O)c12 [QUERCETIN]	–	–	Activity [3]: 79.4%; IC50 [4]: 3.23 µM
N/C(=N\O)c1cccc(NC(=O)Nc2ccccc2Br)c1	–	–	inhibition [5]: 47.7%; inhibition [6]: 49.2%
NC(=NO)c1ccc(NC(=O)Nc2cccc(Br)c2)cc1	6.41 µM	7.62 µM	–
N/C(=N\O)c1ccc(NC(=O)Nc2ccc3ncccc3c2)cc1	6.94 µM	13.2 µM	–
N/C(=N\O)c1cccc(NC(=O)Nc2cccc(C(F)(F)F)c2)c1	17 µM	10.5 µM	–
NC(=NO)c1cccc(NC(=O)Nc2ccccc2Cl)c1	–	15.4 µM	–
N/C(=N\O)c1ccc(NC(=O)Nc2ccc3[nH]ccc3c2)cc1	7.47 µM	12.7 µM	–
Cc1cccc(NC(=O)Nc2cccc(/C(N)=N/O)c2)c1	–	10.6 µM	inhibition [5]: 42.5%
NC(=NO)c1cccc(NC(=O)Nc2ccc(Br)cc2)c1	16.8 µM	14.6 µM	–
N/C(=N\O)c1cccc(NC(=O)Nc2ccc3[nH]ccc3c2)c1	6.24 µM	15.9 µM	Activity [3]: 34.2%; IC50 [4]: 22.9 µM
NC(=NO)c1cccc(NC(=O)Nc2ccc3ncccc3c2)c1	5.68 µM	15.4 µM	–
COc1cccc(NC(=O)Nc2cccc(/C(N)=N/O)c2)c1	12.9 µM	12.8 µM	–
COc1ccccc1NC(=O)Nc1cccc(/C(N)=N/O)c1	–	15.2 µM	inhibition [5]: 49%
NC(=NO)c1cccc(NC(=O)Nc2cccc([N+](=O)[O-])c2)c1	12.1 µM	16.3 µM	–
N/C(=N\O)c1cccc(NC(=O)NCCc2c[nH]c3ccc(Cl)cc23)c1	1.16 µM	3.1 µM	–
N/C(=N\O)c1cccc(NC(=O)Nc2cccc(Br)c2)c1	14.5 µM	8.63 µM	–
NC(=NO)c1cccc(NC(=O)Nc2ccc([N+](=O)[O-])cc2)c1	16.3 µM	17.6 µM	–

SMILES	IC50 [1]	IC50 [2]	also measured
COc1ccc(NC(=O)Nc2cccc(/C(N)=N/O)c2)cc1	16.3 µM	17.9 µM	–
Cc1ccccc1NC(=O)Nc1ccc(/C(N)=N/O)cc1	8.57 µM	16.9 µM	–
N/C(=N\O)c1ccc(NC(=O)Nc2cccc(F)c2)cc1	3.04 µM	8.08 µM	–
N/C(=N\O)c1ccc(NC(=O)Nc2ccc(Cl)cc2)cc1	7.65 µM	14.6 µM	–
Cc1ccc(NC(=O)Nc2cccc(/C(N)=N/O)c2)cc1	–	17.9 µM	inhibition [5]: 39.9%
NC(=NO)c1cccc(NC(=O)Nc2ccc(F)cc2)c1	7.51 µM	17.7 µM	–
N/C(=N\O)c1cccc(NC(=O)Nc2ccc(C(F)(F)F)cc2)c1	12.2 µM	–	inhibition [6]: 47%
N/C(=N\O)c1cccc(NC(=O)Nc2ccc3ncccc3c2)c1	–	–	Activity [3]: 42.9%; IC50 [4]: 18.4 µM
NC(=NO)c1cccc(NC(=O)Nc2cccc(O)c2)c1	14.5 µM	15.5 µM	–
N/C(=N\O)c1cccc(NC(=O)Nc2ccc(Cl)cc2)c1	14.1 µM	16.5 µM	–
N/C(=N\O)c1cccc(NC(=O)Nc2ccccc2)c1	–	17.5 µM	inhibition [5]: 47.9%
N/C(=N\O)c1cccc(NC(=O)Nc2ccc(O)cc2)c1	16.3 µM	14.4 µM	–
N/C(=N\O)c1cccc(NC(=O)Nc2ccccc2Cl)c1	–	–	inhibition [5]: 49.2%
NC(=NO)c1cccc(NC(=O)Nc2ccccc2C(F)(F)F)c1	18.3 µM	17.1 µM	–
N/C(=N\O)c1cccc(NC(=O)NCCc2c[nH]c3ccccc23)c1	1.54 µM	3.91 µM	–
N/C(=N\O)c1cccc(NC(=O)Nc2ccccc2F)c1	18.6 µM	11.3 µM	–
Cc1ccccc1NC(=O)Nc1cccc(/C(N)=N/O)c1	17.4 µM	15.4 µM	–
NC(=NO)c1cccc(NC(=O)Nc2cccc(Cl)c2)c1	17.4 µM	18.7 µM	–
